The results in this text go back to patent publication US20250127774A1, “COMPOUNDS FOR LABELLING NUCLEIC ACID AND USES THEREOF” (THE ROYAL INSTITUTION FOR THE ADVANCEMENT OF …, priority 2022, published 2025).

Structures are written as SMILES. Read-outs that look alike come from different tables or passages of the source.

Assay [1] relates to Jurkat cells. Kind of assay: Resazurin single toxicity assay. As to conditions: Homo sapiens, compound alone. In kind it is cell-based. Here is the method:
(§1) Resazurin assays were carried out to test the effectiveness of VdU, VdA and PINK alone in MV4-11 and Jurkat. The resazurin reduction assay is a colorimetric assay which allows to determine a cell's viability based on its metabolic activities.^26 When the cells are alive, the resazurin gets reduced by NADH into its resorufin form by cellular respiration, which is pink and highly fluorescent.^26 When the cells are dead or their metabolisms are impaired, the resazurin remains in its oxidized form, which is blue and has low fluorescence.^26 The cells can then be imaged using a spectrometer to determine how viable they are after each treatment.
(§2) Resazurin Single toxicity assay. MV4-11 and Jurkat cells were seeded in 96-well plates at a density of 20 000 cells/well, in triplicates. The cells were treated with each nucleoside (VdU/VdA) alone diluted in fresh media in 1:4 serial dilutions (˜0.01% DMSO) at concentrations of 1000-0 μM. The cells were treated with PINK alone diluted in fresh media in 1:2 serial dilutions (˜1% DMSO) at concentration of 100-0 μM. The cells were then incubated for 24 h and 72h. 10 μL of 870 μM resazurin was added per well, and incubated for 2-5 hours. After incubation, the fluorescence intensity at 590 nm (excitation=560 nm) was measured using a SpectraMax M5 plate reader.
(In general: The colour change of resazurin is a common sign of viable cells or microbes.)

Assay [2] has as its system MV4-11 cells. The assay can be described thus: Resazurin single toxicity assay. In kind it is cell-based. As to conditions: Homo sapiens, compound alone. How it is done:
as §1, §2

For the next assay, the system named is MV4-11 and Jurkat. Kind of assay: Resazurin single toxicity assay, summary over both cell lines. In kind it is cell-based. As to conditions: Homo sapiens, after 24 h and 72h, read-out: IC50 summarised over both cell lines. Here is the method:
as §1
Overall, VdU presented itself as a good candidate for the combination therapy with PINK due to its low toxicity in the two leukemia cell lines.
as §2

Assay [3] relates to MV4-11 cells. The assay can be described thus: Resazurin Chou-Talalay optimized toxicity assay. Format: cell-based, human. Conditions: MV4-11, Fa 0.25-0.35 (25% to 35% of cells killed). How it is done: (§3) Lastly to determine how synergistic the combination of VdU with PINK is in the three leukemia cell lines, another resazurin reduction assay was conducted where VdU and PINK were maintained at a constant 5:1 ratio. The data generated from this resazurin assay were analyzed using the synergy model developed by Chou and Talalay 30, which is based on the median effect dose (IC50) and the slope of the drug response curve, as shown in equation II: […]
(§4) The model allows to quantitatively measure the synergy of drug combinations, by generating a combination index (CI).^30 A CI below 1 indicates a synergistic interaction which means that the effect of the drug combination is greater than the effect of both drugs alone combined.^30A CI equal to 1 indicates an additive interaction which means that the effect of the drug combination is equal to the effect of both drugs alone combined.^30 A CI above 1 indicates an antagonistic interaction which means that the effect of the drug combination is less than the effect of both alone combined. […] Where a DRI above 1 is a favorable dose reduction and a DRI below 1 is an unfavorable dose reduction.^30
Resazurin Chou-Talalay optimized toxicity assay. […] The cells were treated with resazurin, incubated and measured, as described above. The data was processed and analysed in the CompuSyn program used for running Chou-Talalay synergy analyses.^33

Assay [4] deals with Jurkat cells. The assay can be described thus: Resazurin Chou-Talalay optimized toxicity assay. Conditions: Homo sapiens, Fa 0.50 (50% cells killed), read-out: Concentration of compound alone required at Fa. Format: cell-based. How it is done:
as §3, §4
(§5) Resazurin Chou-Talalay optimized toxicity assay. MV4-11, MOLM-13 and Jurkat cells were seeded in 96-well plates at a density of 20 000 cells/well, 25 000 cells/well and 30 000 cells/well, respectively, in triplicates. The cells were first treated with VdU diluted in fresh media in 1:4 serial dilutions (˜0.01% DMSO) at concentrations of 500-0 μM alone and in combination, and incubated overnight. 24h post nucleoside addition, the cells were treated with PINK diluted in fresh media in 1:4 serial dilutions (˜1% DMSO) at concentrations of 100-0 μM alone or in combination, and incubated for 72 h. […] The cells were treated with resazurin, incubated and measured, as described above. The data was processed and analysed in the CompuSyn program used for running Chou-Talalay synergy analyses.^33

The next assay relates to MOLM-13 cells. The assay can be described thus: Resazurin Chou-Talalay optimized toxicity assay. In kind it is cell-based. As to conditions: Homo sapiens; MOLM-13, Fa 0.50 (50% cells killed); read-out: Concentration of compound alone required at Fa. How it is done: as §3, §4, §5
A further assay relates to H1299 cells. The assay can be described thus: FACS cell cycle analysis. Format: cell-based, human. Conditions: H1299, 48 h and 72 h after the initial treatment. Here is the method:
5-VdU and PINK combinatory impact on the cell cycle. FACS analysis of H1299 cells treated with 5-VdU/PINK whos that the cell cycle progression is severely impacted upon combinatory treatment. […] (see FIG. 26). Percentage of H1299 cells undergoing apoptosis was indicated by staining with Apotracker™ Green, induced after treatment with 1 μM 5-VdU and 10 μM PINK for different time points. H1299 cells were seeded at a density of 20% and treated with 5-VdU and PINK in the indicated concentrations. One day after the last treatment, the medium was exchanged. The cells were then stained with the Apotracker™ Green dye and Hoechst. Images were taken 72h after the first treatment. (C) H1299 cells were treated with 1 μM 5-VdU for 24 h and subsequently with 5 μM PINK for another 24 h.

[5] abbreviates: 24 h incubation, read-out: IC50 value (24 h).
Where [6] appears, read: 72 h incubation, read-out: IC50 value (72 h).
[7] abbreviates: MV4-11, 24 h incubation, read-out: IC50 value (24 h).
Where [8] appears, read: MV4-11, 72 h incubation, read-out: IC50 value (72 h).

On to `Cc1nnc(-c2ccc3cc4ccc(N(C)C)cc4nc3c2)nn1` [PINK], for which the IC50 with Jurkat cells [1] (setting [5]) was 7 µM; in the assay with Jurkat cells [1] (setting [6]) it was 4.4 µM; with MV4-11 cells [2] (setting [7]) it was 5.7 µM; in the assay on MV4-11 cells [2] (setting [8]), 6.2 µM; in the assay with MV4-11 and Jurkat, roughly 5 µM; in the assay with Jurkat cells [4], 1.1 µM. In the assay with MOLM-13 cells, the IC50 worked out at 1.2 µM. Moreover, in the assay on MV4-11 cells [3], the “Concentration of compound alone required at Fa” value worked out at 3.2 µM. Moreover, the “cell cycle profile (time course)” value with H1299 cells is on record as “mostly unperturbed cell cycle profiles”.

Regarding `C=Cc1cn([C@H]2C[C@H](O)[C@@H](CO)O2)c(=O)[nH]c1=O` [VdU, 5-vinyl-2′-deoxyuridine], the IC50 is greater than 1000 µM in the assay on Jurkat cells [1] (setting [5]); 52 µM in the assay with Jurkat cells [1] (setting [6]); greater than 1000 µM in the assay with MV4-11 cells [2] (setting [7]); greater than 1000 µM in the assay on MV4-11 cells [2] (setting [8]); greater than 1000 µM with MV4-11 and Jurkat; 3.7 µM with Jurkat cells [4]. Moreover, the IC50 with MOLM-13 cells came out at 4.2 µM. In addition, in the assay with MV4-11 cells [3], the “Concentration of compound alone required at Fa” value stood at 59 µM. The “cell cycle profile (time course)” value with H1299 cells is on record as “mostly unperturbed cell cycle profiles”.
